Results: US10030006B2, “Coumarin based Hsp90 inhibitors with urea and ether substituents” (University of Kansas, priority 2013, dated 2018)
Where two headings read alike, the source gives them in different places.

What was measured:
Type in all cases: cell-based
[1] = system: SKBr3 and MCF-7 cell lines; assay: Anti-proliferative activity against both breast cancer cell lines (results in words); conditions: for anti-proliferative activity (in words): SKBr3 and MCF-7, Tables 1-5
Method: Cells were maintained in a 1:1 mixture of Advanced DMEM/F12 (Gibco) supplemented with non-essential amino acids, L-glutamine (2 mM), streptomycin (500 μg/mL), penicillin (100 units/mL), and 10% FBS. Cells were grown to confluence in a humidified atmosphere (37° C., 5% CO2), seeded (2000/well, 100 μL) in 96-well plates, and allowed to attach overnight. Compound at varying concentrations in DMSO (1% DMSO final concentration) was added, and cells were returned to the incubator for 72 h. At 72 h, the number of viable cells was determined using an MTS/PMS cell proliferation kit (Promega) per the manufacturer's instructions. Cells incubated in 1% DMSO were used at 100% proliferation, and values were adjusted accordingly. IC50 values were calculated from separate experiments performed in triplicate using GraphPad Prism.
The anti-proliferative activity of these compounds is evaluated against two breast cancer cell lines, SKBr3 (estrogen receptor negative, Her2 over-expressing breast cancer cells) and MCF-7 (estrogen receptor positive breast cancer cells).

[2] = system: MCF-7 (estrogen receptor positive breast cancer cells); assay: Anti-proliferation assay (MTS/PMS, 72 h), MCF-7
[3] = system: SKBr3 (estrogen receptor negative, Her2 over-expressing breast cancer cells); assay: Anti-proliferation assay (MTS/PMS, 72 h), SKBr3
[4] = Table 4, alkylamino analogues, read-out: MCF-7
[5] = Table 4, alkylamino analogues, read-out: SKBr3
[6] = Homo sapiens, MCF7, Table 1, modified benzamide coumarin derivatives, read-out: MCF-7
[7] = Homo sapiens, SK-BR-3, Table 1, modified benzamide coumarin derivatives, read-out: SKBr3
[8] = Homo sapiens, MCF7, Table 5, alkylether derivatives with cyclic N-substitutions, read-out: MCF-7
[9] = Homo sapiens, SK-BR-3, Table 5, alkylether derivatives with cyclic N-substitutions, read-out: SKBr3
[10] = Homo sapiens, MCF7, Table 2, modified benzamide and biphenylamide derivatives (in μM), read-out: MCF-7
[11] = Homo sapiens, SK-BR-3, Table 2, modified benzamide and biphenylamide derivatives (in μM), read-out: SKBr3
[12] = Homo sapiens, MCF7, amide versus urea linkage, read-out: IC50 for MCF-3
[13] = Homo sapiens, SK-BR-3, amide versus urea linkage, read-out: IC50 for SKBr3
[14] = Table 5, alkylether derivatives with cyclic N-substitutions, read-out: MCF-7
[15] = Table 5, alkylether derivatives with cyclic N-substitutions, read-out: SKBr3

| IC50 [2, 6] [µM] | IC50 [3, 7] [µM] | SMILES | anti-proliferative activity (in words) [1] | also measured |
| --- | --- | --- | --- | --- |
| – | – | COC(=O)CNCCCOc1ccc2cc(NC(=O)c3ccc(O)c(CC=C(C)C)c3)c(=O)oc2c1C [Compound 68l] | decreased anti-proliferative activity | IC50 [2, 4]: 2.82 ± 0.27 µM; IC50 [3, 5]: 1.06 ± 0.11 µM |
| 1.61 ± 0.16 | 3.5 ± 0.01 | CC(=O)Oc1ccc(C(=O)Nc2cc3ccc(OC4CCN(C)CC4)c(C)c3oc2=O)cc1Cl [Compound 21e, 2-chloro-4-(8-methyl-7-(1-methylpiperidin-4-yloxy)-2-oxo-2H-chromen-3-ylcarbamoyl)phenyl acetate] | diminished activity | – |
| – | – | CC(C)=CCc1cc(C(=O)Nc2cc3ccc(OCCCNC45CC6CC(CC(C6)C4)C5)c(C)c3oc2=O)ccc1O [Compound 70j, N-(7-(3-((3S,5S,7S)-adamantan-1-ylamino)propoxy)-8-methyl-2-oxo-2H-chromen-3-yl)-4-hydroxy-3-(3-methylbut-2-en-1-yl)benzamide] | good anti-proliferative activity | IC50 [2, 8]: 0.32 ± 0.03 µM; IC50 [3, 9]: 0.31 ± 0.04 µM |
| – | – | COc1ccc(C(=O)Nc2cc3ccc(OC4CCN(C)CC4)c(C)c3oc2=O)cc1-c1cccc(OC(C)=O)c1 [Compound 32b, 2′-methoxy-5′-(8-methyl-7-(1-methylpiperidin-4-yloxy)-2-oxo-2H-chromen-3-ylcarbamoyl)biphenyl-3-yl acetate] | increases activity almost three-fold | IC50 [2, 10]: 0.36 ± 0.06 µM; IC50 [3, 11]: 0.29 ± 0.01 µM |
| 11.7 ± 1 | 11.5 ± 2 | Cc1c(OC2CCN(C)CC2)ccc2cc(NC(=O)c3ccccc3)c(=O)oc12 [Compound 21d, N-(8-methyl-7-(1-methylpiperidin-4-yloxy)-2-oxo-2H-chromen-3-yl)benzamide] | significantly decreased activity | IC50 [2, 12]: 11.7 µM; IC50 [3, 13]: 11.5 µM |
| 1.48 ± 0.14 | 2.3 ± 0.57 | Cc1c(OC2CCN(C)CC2)ccc2cc(NC(=O)c3ccc(O)c(Cl)c3)c(=O)oc12 [Compound 22e, 3-chloro-4-hydroxy-N-(8-methyl-7-(1-methylpiperidin-4-yloxy)-2-oxo-2H-chromen-3-yl)benzamide] | diminished activity | – |
| 2 ± 0.18 | 2.26 ± 0.12 | C=CCc1cc(C(=O)Nc2cc3ccc(OC4CCN(C)CC4)c(C)c3oc2=O)ccc1OC(C)=O [Compound 21a, 2-allyl-4-((8-methyl-7-((1-methylpiperidin-4-yl)oxy)-2-oxo-2H-chromen-3-yl)carbamoyl)phenyl acetate] | decreased anti-proliferative activities | – |
| – | – | COc1ccc(C(=O)Nc2cc3ccc(OC4CCN(C)CC4)c(C)c3oc2=O)cc1-c1cccc(O)c1 [Compound 33b, 3′-hydroxy-6-methoxy-N-(8-methyl-7-(1-methylpiperidin-4-yloxy)-2-oxo-2H-chromen-3-yl)biphenyl-3-carboxamide] | increases activity almost three-fold | IC50 [2, 10]: 0.38 ± 0.08 µM; IC50 [3, 11]: 0.31 ± 0.04 µM |
| 5.01 ± 0.01 | 3.46 ± 0.02 | Cc1c(OC2CCN(C)CC2)ccc2cc(NC(=O)c3ccc4c(c3)CCC(C)(C)O4)c(=O)oc12 [Compound 20, 2,2-dimethyl-N-(8-methyl-7-(1-methylpiperidin-4-yloxy)-2-oxo-2H-chromen-3-yl)chroman-6-carboxamide] | decreased anti-proliferative activities | – |
| – | – | CC(C)=CCc1cc(C(=O)Nc2cc3ccc(OCCCN(C)c4ccccc4)c(C)c3oc2=O)ccc1O [Compound 70d] | inactive | IC50 [2, 14]: > 50 µM; IC50 [3, 15]: > 50 µM |
| – | – | Cc1c(OC2CCN(C)CC2)ccc2cc(NC(=O)Nc3ccccc3)c(=O)oc12 [H, 1-(8-methyl-7-((1-methylpiperidin-4-yl)oxy)-2-oxo-2H-chromen-3-yl)-3-phenylurea] | – | increase in inhibition, urea versus amide linkage ([1]; text b189, two breast cancer cell lines): ~15 fold; IC50 [2, 12]: 0.89 µM; IC50 [3, 13]: 0.77 µM |
| – | – | CC(C)=CCc1cc(C(=O)Nc2cc3ccc(OCCCNCC(N)=O)c(C)c3oc2=O)ccc1O [Compound 68n] | decreased anti-proliferative activity | IC50 [2, 4]: 1.46 ± 0.35 µM; IC50 [3, 5]: 2.29 ± 0.47 µM |
| – | – | CCCN(CCC)CCCOc1ccc2cc(NC(=O)c3ccc(O)c(CC=C(C)C)c3)c(=O)oc2c1C [Compound 68e, N-(7-(3-(dipropylamino)propoxy)-8-methyl-2-oxo-2H-chromen-3-yl)-4-hydroxy-3-(3-methylbut-2-en-1-yl)benzamide] | did not show any activity at the highest concentration | IC50 ([2]; Homo sapiens, MCF7, Table 4, alkylamino analogues, read-out: MCF-7): > 50 µM; IC50 ([3]; Homo sapiens, SK-BR-3, Table 4, alkylamino analogues, read-out: SKBr3): > 50 µM |
| 2.1 ± 0.08 | 1.68 ± 0.12 | CC(C)=CCc1cccc(C(=O)Nc2cc3ccc(OC4CCN(C)CC4)c(C)c3oc2=O)c1 [Compound 21c, N-(8-methyl-7-((1-methylpiperidin-4-yl)oxy)-2-oxo-2H-chromen-3-yl)-3-(3-methylbut-2-en-1-yl)benzamide] | two-fold lower activity | – |
| 1.62 ± 0.04 | 1.67 ± 0.2 | CC(=O)Oc1ccc(C(=O)Nc2cc3ccc(OC4CCN(C)CC4)c(C)c3oc2=O)cc1 [Compound 21b, 4-(8-methyl-7-(1-methylpiperidin-4-yloxy)-2-oxo-2H-chromen-3-ylcarbamoyl)phenyl acetate] | decreased anti-proliferative activities | – |
| – | – | CC(C)=CCc1cc(C(=O)Nc2cc3ccc(OCCCNCC(=O)O)c(C)c3oc2=O)ccc1O [Compound 68m] | decreased anti-proliferative activity | IC50 [2, 4]: 18.1 ± 5.35 µM; IC50 [3, 5]: 7.57 ± 2.86 µM |
| – | – | CC(C)=CCc1cc(C(=O)Nc2cc3ccc(OCCCNc4ccccc4)c(C)c3oc2=O)ccc1O [Compound 70c] | inactive | IC50 [2, 14]: > 50 µM; IC50 [3, 15]: > 50 µM |
| 1.43 ± 0.08 | 0.84 ± 0.18 | Cc1c(OC2CCN(C)CC2)ccc2cc(NC(=O)c3ccc(O)cc3)c(=O)oc12 [Compound 22b, 4-hydroxy-N-(8-methyl-7-(1-methylpiperidin-4-yloxy)-2-oxo-2H-chromen-3-yl)benzamide] | decreased anti-proliferative activities | – |
| – | – | CC(C)=CCc1cc(C(=O)Nc2cc3ccc(OCCCN(C)Cc4ccccc4)c(C)c3oc2=O)ccc1O [Compound 70h, N-(7-(3-(benzyl(methyl)amino)propoxy)-8-methyl-2-oxo-2H-chromen-3-yl)-4-hydroxy-3-(3-methylbut-2-en-1-yl)benzamide] | greatly decreased activity | IC50 [2, 8]: 11.5 ± 4.16 µM; IC50 [3, 9]: 10.7 ± 0.49 µM |
| 1.25 ± 0.39 | 0.6 ± 0.01 | Cc1c(OC2CCN(C)CC2)ccc2cc(NC(=O)c3ccc(O)c(CCC(C)C)c3)c(=O)oc12 [Compound 19, 4-hydroxy-3-isopentyl-N-(8-methyl-7-(1-methylpiperidin-4-yloxy)-2-oxo-2H-chromen-3-yl)benzamide] | no effect on inhibitory activity | – |
| 2.17 ± 0.11 | 2.43 ± 0.04 | C=CCc1cc(C(=O)Nc2cc3ccc(OC4CCN(C)CC4)c(C)c3oc2=O)ccc1O [Compound 22a, 3-allyl-4-hydroxy-N-(8-methyl-7-((1-methylpiperidin-4-yl)oxy)-2-oxo-2H-chromen-3-yl)benzamide] | decreased anti-proliferative activities | – |
| – | – | COc1cccc(-c2cc(C(=O)Nc3cc4ccc(OC5CCN(C)CC5)c(C)c4oc3=O)ccc2OC(C)=O)c1 [Compound 32a, 3′-methoxy-5-(8-methyl-7-(1-methylpiperidin-4-yloxy)-2-oxo-2H-chromen-3-ylcarbamoyl)biphenyl-2-yl acetate] | maintains inhibitory activity | IC50 [2, 10]: 0.91 µM; IC50 [3, 11]: 0.92 ± 0.06 µM |
| – | – | CC(C)=CCc1cc(C(=O)Nc2cc3ccc(OCCCN4CCCCC4)c(C)c3oc2=O)ccc1O [Compound 65, 4-hydroxy-N-(8-methyl-2-oxo-7-(3-(piperidin-1-yl)propoxy)-2H-chromen-3-yl)-3-(3-methylbut-2-en-1-yl)benzamide] | inactive at the highest concentrations tested | – |
| – | – | CC(C)=CCc1cc(C(=O)Nc2cc3ccc(OCCCNCCO)c(C)c3oc2=O)ccc1O [Compound 68o] | retains activity | IC50 [2, 4]: 1.56 ± 0.09 µM; IC50 [3, 5]: 0.61 ± 0.06 µM |
| – | – | COc1cccc(-c2cc(C(=O)Nc3cc4ccc(OC5CCN(C)CC5)c(C)c4oc3=O)ccc2O)c1 [Compound 33a, 6-hydroxy-3′-methoxy-N-(8-methyl-7-(1-methylpiperidin-4-yloxy)-2-oxo-2H-chromen-3-yl)biphenyl-3-carboxamide] | maintains inhibitory activity | IC50 [2, 10]: 0.81 ± 0.14 µM; IC50 [3, 11]: 0.86 ± 0.16 µM |
